Patent publication US10940201B2, “Nucleic acid derivative having immunostimulatory activity” (Shionogi & Co., Ltd., priority 2015, dated 2021)

Tests used:
B16F10 cells = experiment: Anti-tumor effect of TRP2 peptide vaccine using an adjuvant; assay type: in vivo, mouse; settings: for Tumor inhibition rate (Day 12 after transplantation) / Tumor inhibition rate (Day 14 after transplantation): compared to ODN2006 (SEQ-49)
Experimental: After immunization by TRP2 peptide vaccine, B16F10 cells (ATTC) which is mouse melanoma expressing TRP2 protein was subcutaneously transplanted to evaluate anti-tumor effect. […] The major and minor axes of the engrafted tumor were measured every 2 to 3 days, and the tumor volume was calculated by the formula: (major axis×minor axis^2)/2 Calculation method for indicators of anti-tumor effect For the adjuvant comprising ODN1826 100·(average tumor volume of adjuvant group)/(average tumor volume of ODN1826 group) For the adjuvant comprising ODN2006 100·(average tumor volume of adjuvant group)/(average tumor volume of ODN2006 group)

[1] = Subcutaneous irritation test in a single dose; assay type: in vivo, rats; settings: for Gross: Subcutaneous: White nudules / Histopathological, Subcutaneous: Cyst-like structure accompanied with formulation of fibrous capsule / Gross: Epidermis: Crust / Histopathological, Subcutaneous: Cyst-like structure: number of the observed animals; for Histopathological, Muscle layer: Monocyte infiltration / Histopathological, Subcutaneous: Edema / Histopathological, Subcutaneous: Granulomatous infiltration / Histopathological, Subcutaneous: Neutrophilic infiltration / Histopathological, Subcutaneous: Granulomatous inflammation / Histopathological, Subcutaneous: Monocyte infiltration / Histopathological, Subcutaneous: Necrosis: total score of grades; for Administration site, Gross: Subcutaneous: Red spots, Erythema / Administration site, Gross: Subcutaneous: White accumulation / Administration site, Histopathological: Subcutaneous: Cyst-like structure: number of the observed animals (of 3); for Administration site, Gross: Subcutaneous: Red spots, Erythema / Administration site, Gross: Subcutaneous: White accumulation / Administration site, Histopathological: Subcutaneous: Cyst-like structure / Number of deaths / Number of imminent dissections / Administration site, Histopathological: Muscle layer: Edema / Administration site, Histopathological: Muscle layer: Neutrophilic infiltration / Administration site, Histopathological: Subcutaneous: Bleeding / Administration site, Histopathological: Subcutaneous: Edema / Administration site, Histopathological: Subcutaneous: Neutrophilic infiltration: one day after administration; for Number of deaths / Number of imminent dissections / Administration site, Histopathological: Muscle layer: Edema / Administration site, Histopathological: Muscle layer: Neutrophilic infiltration / Administration site, Histopathological: Subcutaneous: Bleeding / Administration site, Histopathological: Subcutaneous: Edema / Administration site, Histopathological: Subcutaneous: Neutrophilic infiltration: 3 animals; for Administration site, Histopathological: Muscle layer: Edema / Administration site, Histopathological: Muscle layer: Neutrophilic infiltration / Administration site, Histopathological: Subcutaneous: Bleeding / Administration site, Histopathological: Subcutaneous: Edema / Administration site, Histopathological: Subcutaneous: Neutrophilic infiltration: total score (Minimal 1, Mild 2, Moderate 3)
Experimental: Subcutaneous irritation of a compound of the present invention was evaluated by gross examination and histopathological examination about the skin at necropsy one day, one and four week(s) after subcutaneous administration in a single dose.
The compound of the present invention was subcutaneously administered to the center of back between the shoulder blades of rats. At necropsy one day, one or four week(s) after administration (isoflurane anesthesia, euthanasia by bleeding), skin at the administration site was collected, grossly observed and fixed in 10% neutral buffered formalin solution. The fixed skin was cut out, embedded and put in a thin slice by the usual methods, and Hematoxylin-eosin (HE) stained sections were made. The pathological observers were observed the HE stained sections by an optical microscope, and recorded the histopathological findings. The changes in pathological findings were evaluated in four grades of Minimal; ±, Mild; +, Moderate; 2+ and Marked; 3+. When any grade was not appropriate for the finding, it was recorded as Positive.
SEQ-2, SEQ-49 or an adjuvant of the present invention was dissolved in phosphate buffered saline and administered at 4.71, 15.7 or 47.1 nmol/1 mL/site, respectively.

[2] = four weeks after administration, 4.71 nmol/site
[3] = four weeks after administration, 15.7 nmol/site
[4] = four weeks after administration, 47.1 nmol/site
[5] = one week after administration, 4.71 nmol/site
[6] = one week after administration, 15.7 nmol/site
[7] = one week after administration, 47.1 nmol/site

ODN2006 [SEQ-49]
effect of inhibition on tumor progression of B16F10 cells (in words) (B16F10 cells): little effect of inhibition on tumor progression of B16F10 cells
Tumor inhibition rate (Day 12 after transplantation) (B16F10 cells; Table 41, 4.71 nmol): 0.00%
Tumor inhibition rate (Day 12 after transplantation) (B16F10 cells; Table 42, 4.71 nmol): 0.00%
Tumor inhibition rate (Day 14 after transplantation) (B16F10 cells; Table 43, 4.71 nmol): 0.00%
Tumor inhibition rate (Day 14 after transplantation) (B16F10 cells; Table 45, 4.71 nmol): 0.00%
Tumor inhibition rate (Day 14 after transplantation) (B16F10 cells; Table 46, 4.71 nmol): 0.00%
Tumor inhibition rate (Day 14 after transplantation) (B16F10 cells; Table 48, 4.71 nmol): 0.00%
Number of deaths/imminent dissections [1, 2]: 0/0
Gross: Subcutaneous: White nudules [1, 2]: 0
Histopathological, Subcutaneous: Cyst-like structure accompanied with formulation of fibrous capsule [1, 2]: 0
Histopathological, Muscle layer: Monocyte infiltration [1, 2]: 0
Histopathological, Subcutaneous: Edema [1, 2]: 0
Histopathological, Subcutaneous: Granulomatous infiltration [1, 2]: 0
Histopathological, Subcutaneous: Neutrophilic infiltration [1, 2]: 0
Number of deaths/imminent dissections [1, 3]: 0/0
Gross: Subcutaneous: White nudules [1, 3]: 0
Histopathological, Subcutaneous: Cyst-like structure accompanied with formulation of fibrous capsule [1, 3]: 0
Histopathological, Muscle layer: Monocyte infiltration [1, 3]: 0
Histopathological, Subcutaneous: Edema [1, 3]: 0
Histopathological, Subcutaneous: Granulomatous infiltration [1, 3]: 0
Histopathological, Subcutaneous: Neutrophilic infiltration [1, 3]: 0
Number of deaths/imminent dissections [1, 4]: 0/0
Gross: Subcutaneous: White nudules [1, 4]: 0
Histopathological, Subcutaneous: Cyst-like structure accompanied with formulation of fibrous capsule [1, 4]: 0
Histopathological, Muscle layer: Monocyte infiltration [1, 4]: 0
Histopathological, Subcutaneous: Edema [1, 4]: 0
Histopathological, Subcutaneous: Granulomatous infiltration [1, 4]: 0
Histopathological, Subcutaneous: Neutrophilic infiltration [1, 4]: 0
Administration site, Gross: Subcutaneous: Red spots, Erythema ([1]; 4.71 nmol/site): 0
Administration site, Gross: Subcutaneous: White accumulation ([1]; 4.71 nmol/site): 0
Administration site, Histopathological: Subcutaneous: Cyst-like structure ([1]; 4.71 nmol/site): 0
Administration site, Gross: Subcutaneous: Red spots, Erythema ([1]; 15.7 nmol/site): 0
Administration site, Gross: Subcutaneous: White accumulation ([1]; 15.7 nmol/site): 0
Administration site, Histopathological: Subcutaneous: Cyst-like structure ([1]; 15.7 nmol/site): 0
Administration site, Gross: Subcutaneous: Red spots, Erythema ([1]; 47.1 nmol/site): 1
Administration site, Gross: Subcutaneous: White accumulation ([1]; 47.1 nmol/site): 0
Administration site, Histopathological: Subcutaneous: Cyst-like structure ([1]; 47.1 nmol/site): 0
Number of deaths ([1]; 4.71 nmol/site): 0/0
Number of imminent dissections ([1]; 4.71 nmol/site): 0/0
Number of deaths ([1]; 15.7 nmol/site): 0/0
Number of imminent dissections ([1]; 15.7 nmol/site): 0/0
Number of deaths ([1]; 47.1 nmol/site): 0/0
Number of imminent dissections ([1]; 47.1 nmol/site): 0/0
Number of deaths/imminent dissections [1, 5]: 0/0
Gross: Epidermis: Crust [1, 5]: 1
Gross: Subcutaneous: White nudules [1, 5]: 0
Histopathological, Subcutaneous: Cyst-like structure [1, 5]: 0
Histopathological, Subcutaneous: Edema [1, 5]: 4
Histopathological, Subcutaneous: Granulomatous inflammation [1, 5]: 0
Histopathological, Subcutaneous: Monocyte infiltration [1, 5]: 3
Histopathological, Subcutaneous: Necrosis [1, 5]: 0
Histopathological, Subcutaneous: Neutrophilic infiltration [1, 5]: 0
Number of deaths/imminent dissections [1, 6]: 0/0
Gross: Epidermis: Crust [1, 6]: 1
Gross: Subcutaneous: White nudules [1, 6]: 0
Histopathological, Subcutaneous: Cyst-like structure [1, 6]: 0
Histopathological, Subcutaneous: Edema [1, 6]: 6
Histopathological, Subcutaneous: Granulomatous inflammation [1, 6]: 0
Histopathological, Subcutaneous: Monocyte infiltration [1, 6]: 6
Histopathological, Subcutaneous: Necrosis [1, 6]: 0
Histopathological, Subcutaneous: Neutrophilic infiltration [1, 6]: 0
Number of deaths/imminent dissections [1, 7]: 0/0
Gross: Epidermis: Crust [1, 7]: 0
Gross: Subcutaneous: White nudules [1, 7]: 0
Histopathological, Subcutaneous: Cyst-like structure [1, 7]: 0
Histopathological, Subcutaneous: Edema [1, 7]: 5
Histopathological, Subcutaneous: Granulomatous inflammation [1, 7]: 0
Histopathological, Subcutaneous: Monocyte infiltration [1, 7]: 8
Histopathological, Subcutaneous: Necrosis [1, 7]: 0
Histopathological, Subcutaneous: Neutrophilic infiltration [1, 7]: 0
subcutaneous irritation findings four weeks after administration ([1]; rats, single subcutaneous dose, four weeks): inflammation was almost recovered
subcutaneous irritation findings one day after administration ([1]; rats, single subcutaneous dose, one day): acute inflammation, mainly neutrophil infiltration, was observed under the skin
subcutaneous irritation findings one week after administration ([1]; rats, single subcutaneous dose, one week): inflammation, mainly lymphocyte and macrophage, was observed from subcutaneous to dermis tissue
Administration site, Histopathological: Muscle layer: Edema ([1]; 4.71 nmol/site): 2
Administration site, Histopathological: Muscle layer: Neutrophilic infiltration ([1]; 4.71 nmol/site): 4
Administration site, Histopathological: Subcutaneous: Bleeding ([1]; 4.71 nmol/site): 2
Administration site, Histopathological: Subcutaneous: Edema ([1]; 4.71 nmol/site): 4
Administration site, Histopathological: Subcutaneous: Neutrophilic infiltration ([1]; 4.71 nmol/site): 6
Administration site, Histopathological: Muscle layer: Edema ([1]; 15.7 nmol/site): 1
Administration site, Histopathological: Muscle layer: Neutrophilic infiltration ([1]; 15.7 nmol/site): 6
Administration site, Histopathological: Subcutaneous: Bleeding ([1]; 15.7 nmol/site): 1
Administration site, Histopathological: Subcutaneous: Edema ([1]; 15.7 nmol/site): 5
Administration site, Histopathological: Subcutaneous: Neutrophilic infiltration ([1]; 15.7 nmol/site): 6
Administration site, Histopathological: Muscle layer: Edema ([1]; 47.1 nmol/site): 0
Administration site, Histopathological: Muscle layer: Neutrophilic infiltration ([1]; 47.1 nmol/site): 5
Administration site, Histopathological: Subcutaneous: Bleeding ([1]; 47.1 nmol/site): 2
Administration site, Histopathological: Subcutaneous: Edema ([1]; 47.1 nmol/site): 5
Administration site, Histopathological: Subcutaneous: Neutrophilic infiltration ([1]; 47.1 nmol/site): 6
